{
  "source": "patent US12409171B2",
  "about": "“Pharmaceutically active pyrazolo-pyridone modulators of DCN1/2-mediated cullin neddylation” (UNIVERSITY OF KENTUCKY RESEARCH FOUNDATION, priority 2019, dated 2025)",
  "data": [
    {"molecular_target": "DCN1 (Homo sapiens (Human), UniProt Q96GG9)", "sequence (Q96GG9 whole entry)": "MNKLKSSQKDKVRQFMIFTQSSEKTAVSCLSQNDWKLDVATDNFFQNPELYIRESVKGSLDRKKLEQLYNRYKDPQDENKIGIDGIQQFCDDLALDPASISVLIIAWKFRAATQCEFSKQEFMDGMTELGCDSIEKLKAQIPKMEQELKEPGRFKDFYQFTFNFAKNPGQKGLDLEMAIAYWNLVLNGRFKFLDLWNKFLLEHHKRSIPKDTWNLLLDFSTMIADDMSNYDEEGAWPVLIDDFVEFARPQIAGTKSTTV", "assay": "TR-FRET binding assay (biotin-DCN1 / Ac-UBE2M12-AlexaFluor488)", "details": "mean ± SD (n); read-out: DCN1_TRFRET Mean EC50", "protocol": "• IC50 values were generated using our TR-FRET binding assay and are represented as the mean of three replicates with errors reported as the standard deviation.\nThe assay cocktail was then incubated for 1 h at room temperature and distributed using a WellMate instrument (Matrix). Compounds to be screened were added to assay plates from DMSO stock solutions by pin transfer using 50SS pins (V&P Scientific). […] All compounds were tested in triplicate or more.", "units": {"EC50": "nM"}, "values": [
      {"smiles": "CCN1C(=O)[C@@H](NC(=O)c2cccc(C)c2)[C@@H](c2ccc(F)cc2)c2c(C)nn(C(C)C)c21", "note": "[RG-0008860, N-[(4S,5S)-7-ethyl-4-(4-fluorophenyl)-3-methyl-6-oxo-1-(propan-2-yl)-1H,4H,5H,6H,7H-pyrazolo[3,4-b]pyridin-5-yl]-3-methylbenzamide]", "EC50": "467 ± 28"},
      {"smiles": "CCC(C)n1nc(C)c2c1N(CC)C(=O)[C@@H](NC(=O)c1cccc(C)c1)[C@H]2c1ccc(F)cc1", "note": "(stereo partly drawn) [RG-0008861, N-[(4S,5S)-1-(butan-2-yl)-7-ethyl-4-(4-fluorophenyl)-3-methyl-6-oxo-1H,4H,5H,6H,7H-pyrazolo[3,4-b]pyridin-5-yl]-3-methylbenzamide]", "EC50": "827 ± 371"},
      {"smiles": "CCN1C(=O)[C@@H](NC(=O)c2cccc(C)c2)[C@@H](c2ccc(F)cc2)c2c(C)nn(-c3ccc(F)cc3)c21", "note": "[RG-0008866, N-[(4S,5S)-7-ethyl-1,4-bis(4-fluorophenyl)-3-methyl-6-oxo-1H,4H,5H,6H,7H-pyrazolo[3,4-b]pyridin-5-yl]-3-methylbenzamide]", "EC50": "489 ± 18.5"},
      {"smiles": "CCN1C(=O)[C@@H](NC(=O)c2cccc(C)c2)[C@@H](c2ccc(F)cc2)c2c(C)nn(CC)c21", "note": "[RG-0008869, N-[(4S,5S)-1,7-diethyl-4-(4-fluorophenyl)-3-methyl-6-oxo-1H,4H,5H,6H,7H-pyrazolo[3,4-b]pyridin-5-yl]-3-methylbenzamide]", "EC50": "384 ± 30.6"},
      {"smiles": "CCN1C(=O)[C@@H](NC(=O)c2cccc(C)c2)[C@@H](c2ccc(F)cc2)c2c(C)nn(-c3ccccc3F)c21", "note": "[RG-0008870, N-[(4S,5S)-7-ethyl-1-(2-fluorophenyl)-4-(4-fluorophenyl)-3-methyl-6-oxo-1H,4H,5H,6H,7H-pyrazolo[3,4-b]pyridin-5-yl]-3-methylbenzamide]", "EC50": "187 ± 5.73"},
      {"smiles": "CCN1C(=O)[C@@H](NC(=O)c2cccc(C)c2)[C@@H](c2ccc(F)cc2)c2c(C)nn(CC(F)(F)F)c21", "note": "[RG-0008871, N-[(4S,5S)-7-ethyl-4-(4-fluorophenyl)-3-methyl-6-oxo-1-(2,2,2-trifluoroethyl)-1H,4H,5H,6H,7H-pyrazolo[3,4-b]pyridin-5-yl]-3-methylbenzamide]", "EC50": "729 ± 90.1"},
      {"smiles": "CCN1C(=O)[C@@H](NC(=O)c2cccc(C)c2)[C@@H](c2ccc(F)cc2)c2c(C)nn(C3CC3)c21", "note": "[RG-0008872, N-[(4S,5S)-1-cyclopropyl-7-ethyl-4-(4-fluorophenyl)-3-methyl-6-oxo-1H,4H,5H,6H,7H-pyrazolo[3,4-b]pyridin-5-yl]-3-methylbenzamide]", "EC50": "190 ± 35.6"},
      {"smiles": "CCN1C(=O)[C@@H](NC(=O)c2cccc(C)c2)[C@@H](C(C)C)c2c(C)nn(-c3ccccc3)c21", "note": "[RG-0008876, N-[(4S,5S)-7-ethyl-3-methyl-6-oxo-1-phenyl-4-(propan-2-yl)-1H,4H,5H,6H,7H-pyrazolo[3,4-b]pyridin-5-yl]-3-methylbenzamide]", "EC50": "1750 ± 165"},
      {"smiles": "CCN1C(=O)[C@@H](NC(=O)c2cccc(C)c2)[C@@H](c2ccc(F)cc2)c2c(C)nn(C3CCCCC3)c21", "note": "[RG-0008877, N-[(4S,5S)-1-cyclohexyl-7-ethyl-4-(4-fluorophenyl)-3-methyl-6-oxo-1H,4H,5H,6H,7H-pyrazolo[3,4-b]pyridin-5-yl]-3-methylbenzamide]", "EC50": "835 ± 34.8"},
      {"smiles": "CCN1C(=O)[C@@H](NC(=O)c2cccc(C)c2)[C@@H](c2ccc(F)cc2)c2c(C)nn(C3CCCC3)c21", "note": "[RG-0008878, N-[(4S,5S)-1-cyclopentyl-7-ethyl-4-(4-fluorophenyl)-3-methyl-6-oxo-1H,4H,5H,6H,7H-pyrazolo[3,4-b]pyridin-5-yl]-3-methylbenzamide]", "EC50": "770 ± 76.1"},
      {"smiles": "CCN1C(=O)[C@@H](NC(=O)c2cccc(C)c2)[C@@H](c2ccc(F)cc2)c2c(C)nn(C(C)C(F)(F)F)c21", "note": "(stereo partly drawn) [RG-0008879, N-[(4S,5S)-7-ethyl-4-(4-fluorophenyl)-3-methyl-6-oxo-1-(1,1,1-trifluoropropan-2-yl)-1H,4H,5H,6H,7H-pyrazolo[3,4-b]pyridin-5-yl]-3-methylbenzamide]", "EC50": "7260 ± 1090"}
    ]}
  ]
}
